# Results from patent publication US4055648A, “Papaverine thienyl-carboxylates and medicaments containing them” (Choay S.A., priority 1974, dated 1977).
# “Also recorded” adds a separate entry of the source. Counter-ions that a name gives are not always drawn.
# What was measured:
# platelet adhesivity = test: in vivo platelet adhesivity in thrombin-sensitized rabbit; conditions: thrombin 20 U i.v.
# Procedure: (§1) The technique used is that described in the study "Disseminated and localized intravascular coagulations" of C. Raby, Masson et Cie, 1970, p. 91-93.
# (§2) The parameter used in this technique is the level of platelet adhesivity. The blood to be tested is run through a column of glass beads. Platelet counts are carried out on the blood before and after passage respectively through the glass beads. The difference between these two counts enables the level of platelet adhesivity to be estimated. Comparison of the adhesivity ratios, measured in the treated animals and in the controlled animals, enables the effect of the product under test to be estimated.
# In the in vivo test the animal to be tested (the rabbit) is injected with thrombin (20 U) by the intravenous route, for the purpose of sensitizing the platelets, and the product under study is then injected. The behavior of the platelets is studied by samples taken before and after administration of the product under study.
# (§3) Papaverine thienyl-2-carboxylate has, in all these tests, been applied in the dissolved state in a 1 % aquous solution of methanol in isotonic chloride solution, in the proportion of 13 mg of papaverine thienyl-2-carboxylate per 100 ml of this solution.
# 30 Animals were treated in the in vivo tests:
# 10 animals with the thrombin alone (control animals), […]
# [1] = system: unilateral cerebral oedema; test: unilateral cerebral oedema: cortical electrogenesis ("R" index) and residual cortical reactivity, intraduodenal route; assay type: in vivo, rabbit
# Procedure: The effect of a medicament on the oxygen and glucose metabolisms is estimated, in this test, by the reduction in the deleterious effects of oedema on certain parameters with respect to the controls.
# The technique used is that described in the work "Aggressology" 1972, 13, Vol. IV, p. 257-259 (M.G. Borzex, M. Labos, J. Cahn). The principle of the test consists of producing unilateral ablation of a bone flap of 7 to 10 mm diameter in the occipital region. The incision, 48 hours later, of the dura mater or dural (membrane which surrounds the brain) results in the formation of an oedema.
# Two essential parameters are selected to judge the seriousness of the oedematous effect and to subsequently permit estimation of the effects of the compound under study: electrogenesis on the "injured" hemisphere and the development of residual cortical reactivity in this same hemisphere.
# The electrogenesis is judged by variations in the index (R), defined as the ratio of the number of rapid rhythms (theta arousal rhythm) to the number of slow waves of the electrocorticogram (determined by electroencephalography). On the injured side, the size of the slow waves tends to increase and that of the thetarhythm connected with the arousal response to be eliminated.
# The residual cortical reactivity of the hemisphere carrying the cerebral oedema expresses the percentage of reactivity which persists with regard to a sensorial stimulation (auditive stimulation or nociceptive stimulation of the cutanous nerve ends by pinching of the dorsal skin) despite the oedematous degradation.
# An active medicament tends to increase the value of the "R" index and to reestablish the residual cortical reactivity of the animals which have undergone the operation. The activities of the medicament expressed in % growth for the index R, and in % growth for the residual cortical reactivity, are compared with results observed in the controls.
# The study was carried out on 42 male rabbits, active, of average weight 2.5 kg (and in eight control animals). The product to be tested (papaverine thienyl-2-carboxylate) was administered by the intraduodenal route, […] after ablation of the bone flap and just before the incision of the dural. This route of administration was selected since it is equivalent to the administration by the oral route.
# The rabbits studied were divided in the following manner:
# a series of eight "control" animals receiving 2 ml/kg of isotonic chloride solution;
# three series of eight rabbits, each having received respectively 5, 10 and 20 mg/kg of papaverine hydrochloride;
# two series of eight animals, each receiving respectively 6.2 and 12.4 mg/kg of papaverine thienyl-2-carboxylate (dissolved in alcoholized water, containing 1 ml of alcohol per 30 ml of water);
# lastly, two rabbits receiving 2 mg/kg of papaverine hydrochloride dissolved in alcoholized water.
# The doses of 5 and 10 mg/kg of papaverine hydrochloride correspond respectively to doses of 6.2 and 12.4 mg/kg of papaverine thienyl-2-carboxylate, if reduced to the corresponding doses of papaverine-base (respectively 4.51 and 9.02 mg/kg).
# The development of the two above indicated parameters (expressed below in average values) is observed for 30 hours following the incision of the dural.
# solubility = assay type: physicochemical
# [2] = system: platelet adhesivity; disturbances of electrogenesis at the level of the brain; test: overall comparison of papaverinic activity (platelet adhesivity, brain disturbances, cortical reactivity); conditions: associated with / expressed as papaverine base
# [3] = system: platelet adhesivity (blood); test: in vitro platelet adhesivity (glass bead column, Raby technique); assay type: cell-based; conditions: at equal doses expressed in terms of papaverine base
# Procedure: as §1, §2
# In in vitro test the levels of platelet adhesivity measured on control specimens of blood and on blood specimens to which have previously been added doses of the product under test, are compared.
# as §3
# LD50 by the oral route = conditions: in vivo, mouse
# Source text: Study of the LD50 (by the oral route) in the mouse has established the complete inoccuousness of papaverine thienyl-carboxylates.
# [4] = administration in repeated doses; cited from earlier work
compound,measurement,setting,value
"COc1ccc(Cc2nccc3cc(OC)c(OC)cc23)cc1OC [papaverine citrate, reference compound]",effect on platelet adhesivity,platelet adhesivity; 32 γ/ml (20 γ/ml papaverine base),inactive
"COc1ccc(Cc2nccc3cc(OC)c(OC)cc23)cc1OC [papaverine hydrochloride, reference compound]",activity in cerebral oedema,"[1]; 5 mg/kg intraduodenal (4.51 mg/kg papaverine base), hydrochloride",practically inactive; also recorded: practically ineffective
same,treated animals with biological effect,[1]; 10 mg/kg intraduodenal,about 50%
same,rabbits with improved residual cortical reactivity,"[1]; 10 mg/kg intraduodenal, 2 hours following administration",four rabbits out of eight
same,improvement of residual cortical reactivity (average),"[1]; 10 mg/kg intraduodenal, 2 hours following administration, average in eight rabbits",29%
same,"rise in the ""R"" index","[1]; 10 mg/kg intraduodenal, between 4 and 6 hours",14%
same,"rise in the ""R"" index","[1]; 10 mg/kg intraduodenal, first 4 hours",19%
same,"animals affected (""R"" ratio)",[1]; 20 mg/kg intraduodenal,six animals in eight
same,improvement of residual cortical reactivity,"[1]; 20 mg/kg intraduodenal, between 4 and 6 hours",about 23%
same,improvement of residual cortical reactivity,"[1]; 20 mg/kg intraduodenal, during 4 hours, same proportion as ""R"" ratio",improved in the same proportion
COc1ccc(Cc2nccc3cc(OC)c(OC)cc23)cc1OC [papaverine thienyl-2-carboxylate],solubility in methanol,solubility,Soluble
same,solubility in warm ethanol,solubility; warm ethanol,Soluble
same,papaverinic activity compared with known papaverine salts,[2],to a much higher degree; also recorded: distinctly higher than the salts of papaverine used until now
same,effect on platelet adhesivity,platelet adhesivity; 2.88 γ/ml (2.10 γ/ml papaverine base),act favourably on the adhesivity rate of the platelets
same,activity in cerebral oedema,[1]; 6.2 mg/kg intraduodenal,active
same,effect compared with papaverine hydrochloride 20 mg/kg,[1]; 6.2 mg/kg intraduodenal,rather similar to that exerted by a dose of 20 mg/kg of papaverine hydrochloride
same,rabbits with very distinct improvement of the two parameters,[1]; 6.2 mg/kg intraduodenal (4.51 mg/kg papaverine base),five rabbits out of eight
same,extension in the duration of the arousal reactions on the injured hemisphere,"[1]; 6.2 mg/kg intraduodenal, between second and fourth hours, average in eight rabbits",45.4%
same,duration of improvement of the two parameters,"[1]; 6.2 mg/kg intraduodenal, five rabbits out of eight",at least 4 hours
same,effect compared with papaverine hydrochloride 20 mg/kg,[1]; 12.4 mg/kg intraduodenal,slightly more intense effect and more prolonged than a dose twice as great of papaverine hydrochloride
same,persistence of improvement of residual cortical reactivity,[1]; 12.4 mg/kg intraduodenal,remaining substantially stable during the first 6 hours
same,rabbits with particularly distinct effect,[1]; 12.4 mg/kg intraduodenal,seven rabbits out of eight
same,"average rise in the ""R"" index",[1]; 12.4 mg/kg intraduodenal (9.02 mg/kg papaverine base),38.5%
same,average improvement of residual cortical reactivity,"[1]; 12.4 mg/kg intraduodenal, maximum effect between 2 and 4 hours, eight rabbits",54.2%
same,activity on residual cortical reactivity compared with papaverine hydrochloride,[1]; intraduodenal,much more marked activity
same,activity compared with papaverine hydrochloride,"[1]; intraduodenal, collected results",distinctly more active than papaverine hydrochloride
same,activity relative to known salts of papaverine,[3],considerably greater than that of the known salts of papaverine used
same,LD50 at 48 h,LD50 by the oral route,1300 mg/kg
"COc1ccc(Cc2nccc3cc(OC)c(OC)cc23)cc1OC [papaverine thienyl-3-carboxylate, Papaverine thienyl-3-carboxylate]",solubility in hot ethanol,solubility; hot ethanol,Soluble
same,solubility in methanol,solubility,Soluble
same,solubility,"solubility; water, read-out: solutions in water, content of product",≤ 10000 µg/mL
COc1ccc(Cc2nccc3cc(OC)c(OC)cc23)cc1OC [papaverine],secondary effects,[4],"somnolence, constipation, increased excitability of the reflexes and digestive disorders"
